Measured values taken from publication PMC10570366, “Molecular mechanism of decision-making in glycosaminoglycan biosynthesis” (Nature Communications, 2023).

Legend:
Format in all cases: biochemical
MBP-CSGALNACT1 = molecular target: T1, MBP-CSGALNACT1 (Homo sapiens, UniProt Q8TDX6); assay: UDP-Glo; conditions: acceptor TetraP-peptides; 5 mM Mn2+; pH 7.5
T1 sequence (Q8TDX6 36-532 limits assumed): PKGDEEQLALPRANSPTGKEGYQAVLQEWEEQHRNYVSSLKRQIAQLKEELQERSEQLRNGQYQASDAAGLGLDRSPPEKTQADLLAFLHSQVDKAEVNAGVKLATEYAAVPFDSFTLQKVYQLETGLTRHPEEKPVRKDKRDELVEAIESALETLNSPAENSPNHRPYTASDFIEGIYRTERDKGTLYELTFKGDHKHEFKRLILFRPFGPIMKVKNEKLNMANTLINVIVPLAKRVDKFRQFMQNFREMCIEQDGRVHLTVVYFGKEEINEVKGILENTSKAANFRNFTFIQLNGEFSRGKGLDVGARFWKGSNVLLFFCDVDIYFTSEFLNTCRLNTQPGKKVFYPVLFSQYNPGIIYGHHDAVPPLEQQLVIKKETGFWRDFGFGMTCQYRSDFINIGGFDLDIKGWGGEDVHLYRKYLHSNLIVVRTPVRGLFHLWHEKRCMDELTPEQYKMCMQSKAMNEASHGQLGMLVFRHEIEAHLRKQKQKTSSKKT

CHSY3/CHPF = molecular target: T2, CHSY3/CHPF (Homo sapiens, UniProt Q70JA7); assay: HPLC and MS of glycopeptide product; conditions: acceptor TetraP-BETA; 5 mM Mn2+; pH 7.5; 30 °C
T2 construct: soluble lumenal regions, His6 tags, obligate heterodimer co-expressed in Expi293F
T2 sequence (Q70JA7 29-882 limits assumed): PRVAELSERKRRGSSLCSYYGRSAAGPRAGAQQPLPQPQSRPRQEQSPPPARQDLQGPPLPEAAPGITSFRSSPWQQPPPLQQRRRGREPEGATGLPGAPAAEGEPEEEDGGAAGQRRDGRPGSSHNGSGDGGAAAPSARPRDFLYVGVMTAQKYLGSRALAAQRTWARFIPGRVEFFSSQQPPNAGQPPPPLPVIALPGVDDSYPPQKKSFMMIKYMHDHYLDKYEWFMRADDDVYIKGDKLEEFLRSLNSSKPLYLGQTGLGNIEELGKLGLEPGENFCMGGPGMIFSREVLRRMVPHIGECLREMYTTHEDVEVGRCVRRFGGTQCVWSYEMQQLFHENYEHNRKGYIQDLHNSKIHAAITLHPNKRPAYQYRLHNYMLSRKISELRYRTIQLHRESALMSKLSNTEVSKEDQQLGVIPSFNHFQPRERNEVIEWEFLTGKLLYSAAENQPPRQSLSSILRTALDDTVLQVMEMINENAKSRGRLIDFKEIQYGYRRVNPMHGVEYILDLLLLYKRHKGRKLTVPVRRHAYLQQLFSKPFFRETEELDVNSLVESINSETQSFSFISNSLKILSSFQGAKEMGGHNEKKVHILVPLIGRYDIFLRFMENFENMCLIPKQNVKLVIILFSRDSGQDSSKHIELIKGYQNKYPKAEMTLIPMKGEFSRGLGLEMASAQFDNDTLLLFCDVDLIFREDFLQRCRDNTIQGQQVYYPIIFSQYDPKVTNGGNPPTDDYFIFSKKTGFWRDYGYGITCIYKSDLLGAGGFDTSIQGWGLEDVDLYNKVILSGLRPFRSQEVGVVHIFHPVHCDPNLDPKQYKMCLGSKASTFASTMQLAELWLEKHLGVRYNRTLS
T2 sequence (Q8IZ52 35-775 partner): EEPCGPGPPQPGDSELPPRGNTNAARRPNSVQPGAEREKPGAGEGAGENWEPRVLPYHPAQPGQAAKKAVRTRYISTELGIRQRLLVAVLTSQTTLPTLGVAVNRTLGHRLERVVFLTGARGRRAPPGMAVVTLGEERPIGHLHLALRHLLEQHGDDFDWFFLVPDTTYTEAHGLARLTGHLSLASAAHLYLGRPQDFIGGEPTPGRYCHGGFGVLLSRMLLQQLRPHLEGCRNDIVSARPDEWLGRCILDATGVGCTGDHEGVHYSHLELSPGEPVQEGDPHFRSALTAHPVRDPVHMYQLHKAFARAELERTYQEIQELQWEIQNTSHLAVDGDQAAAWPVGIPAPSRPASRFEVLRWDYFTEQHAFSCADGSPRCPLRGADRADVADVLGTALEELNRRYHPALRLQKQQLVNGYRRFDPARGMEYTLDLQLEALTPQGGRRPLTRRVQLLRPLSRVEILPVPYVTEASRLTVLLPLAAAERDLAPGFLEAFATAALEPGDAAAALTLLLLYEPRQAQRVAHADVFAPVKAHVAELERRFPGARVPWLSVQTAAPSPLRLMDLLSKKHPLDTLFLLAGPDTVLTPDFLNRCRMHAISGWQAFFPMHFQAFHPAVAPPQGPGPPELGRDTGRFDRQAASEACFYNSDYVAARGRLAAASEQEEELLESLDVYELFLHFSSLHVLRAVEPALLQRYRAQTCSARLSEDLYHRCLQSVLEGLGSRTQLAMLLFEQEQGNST

EXT1/EXT2 = molecular target: T3, EXT1/EXT2 (Homo sapiens, UniProt Q16394+Q93063); assay: HPLC and MS of glycopeptide product; conditions: acceptor GlcNAc-TetraP-BETA; Mn2+; pH 7.5
T3 construct: soluble lumenal regions, FLAG-EXT1/His-EXT2 heterodimer co-expressed in Expi293F
T3 sequence (Q16394 29-746 limits assumed): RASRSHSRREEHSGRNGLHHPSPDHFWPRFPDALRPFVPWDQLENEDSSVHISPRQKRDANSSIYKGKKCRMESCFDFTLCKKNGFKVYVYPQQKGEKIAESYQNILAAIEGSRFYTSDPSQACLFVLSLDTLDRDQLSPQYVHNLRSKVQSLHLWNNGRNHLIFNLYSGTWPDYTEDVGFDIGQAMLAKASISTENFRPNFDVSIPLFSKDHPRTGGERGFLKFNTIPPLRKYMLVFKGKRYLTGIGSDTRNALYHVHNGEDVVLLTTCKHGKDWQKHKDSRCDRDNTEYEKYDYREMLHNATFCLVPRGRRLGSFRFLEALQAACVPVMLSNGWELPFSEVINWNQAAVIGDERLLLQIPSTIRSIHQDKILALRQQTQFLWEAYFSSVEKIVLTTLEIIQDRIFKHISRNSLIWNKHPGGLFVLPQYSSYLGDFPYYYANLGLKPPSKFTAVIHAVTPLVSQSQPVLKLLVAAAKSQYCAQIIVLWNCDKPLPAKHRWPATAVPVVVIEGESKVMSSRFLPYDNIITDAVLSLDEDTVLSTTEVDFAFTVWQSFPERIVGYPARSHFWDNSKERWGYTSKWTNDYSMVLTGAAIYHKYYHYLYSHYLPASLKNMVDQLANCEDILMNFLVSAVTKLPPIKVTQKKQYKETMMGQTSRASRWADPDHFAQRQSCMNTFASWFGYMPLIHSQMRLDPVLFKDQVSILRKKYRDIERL
T3 sequence (Q93063 47-718 limits assumed): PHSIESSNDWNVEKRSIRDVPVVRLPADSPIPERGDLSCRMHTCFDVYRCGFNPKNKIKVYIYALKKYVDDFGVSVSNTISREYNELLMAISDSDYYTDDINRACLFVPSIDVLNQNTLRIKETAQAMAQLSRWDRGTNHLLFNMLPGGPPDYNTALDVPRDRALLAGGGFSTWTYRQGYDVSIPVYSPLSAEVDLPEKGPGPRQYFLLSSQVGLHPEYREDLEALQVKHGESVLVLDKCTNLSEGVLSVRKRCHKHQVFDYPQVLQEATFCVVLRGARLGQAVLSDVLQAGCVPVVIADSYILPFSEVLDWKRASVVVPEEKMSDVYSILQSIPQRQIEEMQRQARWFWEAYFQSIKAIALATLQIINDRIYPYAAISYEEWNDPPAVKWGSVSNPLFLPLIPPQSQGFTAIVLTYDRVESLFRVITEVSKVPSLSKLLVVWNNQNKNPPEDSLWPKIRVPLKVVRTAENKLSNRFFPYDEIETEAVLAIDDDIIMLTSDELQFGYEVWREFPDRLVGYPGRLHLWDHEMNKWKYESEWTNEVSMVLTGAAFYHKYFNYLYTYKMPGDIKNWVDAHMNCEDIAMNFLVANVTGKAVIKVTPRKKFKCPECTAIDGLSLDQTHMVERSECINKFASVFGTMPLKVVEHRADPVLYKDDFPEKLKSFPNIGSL

B3GAT3 = molecular target: T4, B3GAT3 (Homo sapiens, UniProt O94766); assay: one-pot enzymatic synthesis, HPLC and MS; conditions: acceptor Gal-Gal-Xyl-BKN; 25 mM Mn2+; pH 7.5; 30 °C
T4 sequence (O94766 29-335 limits assumed): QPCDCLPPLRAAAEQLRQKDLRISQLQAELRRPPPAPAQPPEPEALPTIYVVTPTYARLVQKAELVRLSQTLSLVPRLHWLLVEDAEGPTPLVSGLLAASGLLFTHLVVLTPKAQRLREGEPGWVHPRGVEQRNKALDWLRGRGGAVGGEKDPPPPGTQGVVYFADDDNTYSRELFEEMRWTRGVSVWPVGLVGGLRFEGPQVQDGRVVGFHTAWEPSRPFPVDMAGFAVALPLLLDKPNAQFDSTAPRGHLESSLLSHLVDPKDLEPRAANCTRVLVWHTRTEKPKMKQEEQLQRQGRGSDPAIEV

| Structure (SMILES) | UDP-Glo (MBP-CSGALNACT1) | HPLC and MS of glycopeptide product (CHSY3/CHPF) | HPLC and MS of glycopeptide product (EXT1/EXT2) | one-pot enzymatic synthesis, HPLC and MS (B3GAT3) |
| --- | --- | --- | --- | --- |
| CC(=O)N[C@H]1[C@@H](OP(=O)(O)OP(=O)(O)OC[C@H]2O[C@@H](n3ccc(=O)[nH]c3=O)[C@H](O)[C@@H]2O)O[C@H](CO)[C@H](O)[C@@H]1O [UDP-GalNAc] | A similar behaviour was confirmed for CSGALNACT1 | CHSY3/CHPF was able to transfer GalNAc onto TetraP-BETA |  |  |
| O=C(O)[C@H]1O[C@H](OP(=O)(O)OP(=O)(O)OC[C@H]2O[C@@H](n3ccc(=O)[nH]c3=O)[C@H](O)[C@@H]2O)[C@H](O)[C@@H](O)[C@@H]1O [UDP-GlcA] |  |  | both enzymes are able to catalyse the addition of a sixth sugar, forming GlcA-GlcNAc-TetraP-BETA | all four GTs but without FAM20B gave the unphosphorylated linker glycopeptide, GlcA-Gal-Gal-Xyl-BKN (Tetra-BKN) |
